Entries after “also recorded” stand apart in the source; their conditions may differ. Read-outs that look alike come from different tables or passages of the source.
Assays:
Assay type in all cases: cell-based
[1] = tested on: S. cerevisiae (diploid, BY4743) actin cables; assay: Actin cable visualization, TRITC-labeled phalloidin; details: for Cells without actin cables, Avg / Cells with actin cables, Avg: average of two replicates; for Cells without actin cables, Avg: untreated 25.87; for Cells with actin cables, Avg: untreated 74.13
Description: S. pombe and S. cerevisiae cells (OD600 of 0.6 to 0.8) were incubated with 1× MIC of alkyne-OF at 30°C, with samples removed at 10, 30, and 60 min postincubation. The cells were washed in PBS and fixed with 3.7% formaldehyde. The cells were permeabilized by adding 0.5% Triton X-100. The cells were washed with PBS before the Click reaction with azide-derivatized Alexa Fluor 488 (Click-iT EdU imaging kit; Thermo Fisher Scientific). The cells were visualized with an Olympus FV1000 confocal microscope. A competition assay was carried out by pretreating cells with 1× MIC of the native occidiofungin followed by treatment with alkyne-OF. […] A 6.6 µM concentration of tetramethyl rhodamine isothiocyanate (TRITC)-tagged phalloidin was added to formaldehyde-fixed cells (permeabilized with 0.2% Triton X-100) for 30 min at room temperature. The cells were washed in PBS, added to a concanavalin A-treated glass slides, and overlaid with Vectashield plus DAPI. Images were viewed using a Nikon 50i fluorescence microscope with a 100× oil immersion objective and Texas Red and DAPI filter sets. Random images were captured using a Retiga EXi black and white charge-coupled-device (CCD) camera and Image Q software. All images were captured using the same exposure settings, with the image contrast altered postcapture using CorelDraw.

[2] = tested on: S. pombe; assay: FM-464 uptake (endocytosis) assay; details: 0.5 μg/ml (0.5× MIC) and 1 μg/ml (1× MIC), 30 min, 30°C
Description: The hyphal induction assay was performed as previously reported with minor modifications ([58]). Candida albicans strain ATCC 66027 was grown in yeast extract-peptone-dextrose (YPD) medium at 30°C for 48 h to reach saturation with an OD600 of 17 to 19. Cells were diluted into fresh Spider medium (1% nutrient broth, 1% mannitol, 0.2% K2HPO4) to obtain an OD600 of 0.05 (∼0.5 × 10^6 to 1 × 10^6 cells/ml) and incubated at 37°C with shaking to induce hyphal formation. Immediately prior to the 37°C incubation, occidiofungin (1 µg/ml; 0.5× MIC) or an equal volume of DMSO was added to the cultures. Aliquots were removed at 0-, 1-, 2-, 4-, and 6-h time points and fixed in 3.7% formaldehyde for later analysis of cell morphology by light microscopy. More than 200 cells were examined for each time point, and cells were scored as having either a yeast or filamentous form, with cells showing any outgrowth considered filamentous. DNA segregation assays were performed using a mid-log culture of S. cerevisiae (BY4743, diploid) and C. albicans (ATCC 66027). The cultures were diluted in fresh YPD medium to obtain OD600s of 0.095 (∼1 × 10^6 to 1.5 × 10^6 cells/ml) and 0.05 (0.5 × 10^6 to 0.8 × 10^6 cells/ml), respectively. […] Images were viewed using a Nikon 50i fluorescence microscope with a 100× oil immersion objective and DAPI filter. Cells were scored on the basis of bud morphology and DNA location. […]

[3] = tested on: Candida parapsilosis 2006; assay: MIC susceptibility testing (caspofungin-resistant strain); design: key to MIC, 50% inhibition: -: indicates absence of isolates with 50% inhibition endpoint; details: CLSI M27-A3
Description: (§1) Occidiofungin was purified from a liquid culture of Burkholderia contaminans MS14 as previously described ([21]). MIC susceptibility testing was performed according to the CLSI M27-A3 and M38-A2 standards for the susceptibility testing of yeasts and filamentous fungi, respectively. S. cerevisiae deletion mutants were obtained from the commercially available BY4741 deletion library (Thermo Scientific).

[4] = tested on: Cryptococcus neoformans 19526; assay: as above; design: key to MIC, 50% inhibition: -: indicates absence of isolates with 50% inhibition endpoint; details: CLSI M27-A3; 72 hours
Description: as §1

occidiofungin
Cells with actin cables, % [1]: 1.32% | Cells without actin cables, Avg ([1]; 0.5X MIC, 30 min, SD 1.45): 97.66% | Cells with actin cables, Avg ([1]; 0.5X MIC, 30 min, SD 1.45): 2.34% | Cells without actin cables, % ([1]; 0.5X MIC, 30 min, replicate 1): 98.68% | Cells with actin cables, % ([1]; 0.5X MIC, 30 min, replicate 2): 3.36% | Cells without actin cables, % ([1]; 0.5X MIC, 30 min, replicate 2): 96.64% | Cells without actin cables, Avg ([1]; 0.5X MIC, 60 min, SD 0.25): 99.82% | Cells with actin cables, Avg ([1]; 0.5X MIC, 60 min, SD 0.25): 0.18% | Cells with actin cables, % ([1]; 0.5X MIC, 60 min, replicate 1): 0% | Cells without actin cables, % ([1]; 0.5X MIC, 60 min, replicate 1): 100% | Cells with actin cables, % ([1]; 0.5X MIC, 60 min, replicate 2): 0.36% | Cells without actin cables, % ([1]; 0.5X MIC, 60 min, replicate 2): 99.64% | effect on actin organization ([1]; 0.5× MIC, 30 min): an accumulation of actin patches and/or aggregates of F-actin were observed throughout the treated cells with a concomitant loss of actin cables; also recorded: a loss of actin cables and the accumulation of actin aggregates | effect on endocytosis (FM-464-stained vesicles) [2]: concentration-dependent reductions in stained endocytic vesicles; also recorded: decreased in a dose-dependent fashion | MIC, 50% inhibition ([3]; 24 hours): 2 mg/L | MIC, 100% inhibition ([3]; 24 hours): 4 mg/L | MIC, 50% inhibition ([3]; 48 hours): - | MIC, 100% inhibition ([3]; 48 hours): 4 mg/L | MIC, 50% inhibition [4]: - | MIC, 100% inhibition [4]: 2 mg/L

From paper PMC6325233, “A Novel Actin Binding Drug with In Vivo Efficacy” (Antimicrobial Agents and Chemotherapy, 2018)
